Experimental data: patent US20210338672A1, “USE OF AN INHIBITOR OF AN ENT FAMILY TRANSPORTER IN THE TREATMENT OF CANCER AND COMBINATION THEREOF WITH AN ADENOSINE RECEPTOR ANTAGONIST” (iTeos Belgium SA, priority 2018, published 2021)
Structures can show the parent of a compound that is named as a salt.

Assays:
[1] = tested on: Human primary CD3+ T cells; test: TNFα secretion by CD3+ T cells (AlphaLISA); conditions: 100 μM ATP; for Reversal of inhibition of T cells in the presence of ATP, A2A receptor antagonist in combination with dipyridamole: FIG. 5A-C (viability, CD8+ proliferation, TNFα), with dipyridamole 1 μM, Compound 8a 300 nM, NIR178 5 μM, CPI-444 5 μM, AZD4635 1 μM, AB928 1 μM
Method: Human primary CD3+ T cells were stimulated with antiCD3/antiCD28-coated microbeads, and treated with 100 μM ATP or control medium. Viability of CD3+ T cells (FIG. 5A) and proliferation of CD8+ T cells (FIG. 5B) were analysed by flow cytometry after a 3 days incubation period. TNFα secretion in the supernatant was analysed by AlphaLISA. Grey shaded bars show A2AR antagonist treated wells, whilst clear bars denote concentration-matched DMSO treated wells. […] Data shown are representative of data obtained in three healthy individuals in 4 independent experiments.
Venous blood from healthy volunteers, all of whom signed an informed consent approved by the Ethics Committee (FOR-UIC-BV-050-01-01 ICF_HBS_HD Version 5.0), was obtained via Unité d'Investigation Clinique (Centre Hospitalier Universitaire de Tivoli, La Louviere, Belgium). Mononuclear cells were collected by density gradient centrifugation, using SepMate-50 tubes and Lymphoprep according to the manufacturer's instructions. CD3+ T cells were isolated by immunomagnetic negative selection, using the EasySep Human T Cell Isolation Kit as per manufacturer's instructions. CD3+ T cells were stored in heat inactivated FBS and 10% DMSO in liquid nitrogen.
Human purified CD3+ T cells were thawed and washed twice with RPMI1640 medium, UltraGlutamine, supplemented with 1× non-essential amino acids (Lonza), and 1 mM Sodium Pyruvate (Gibco) (complete media), containing 10% hiFBS. After the final wash, cells were resuspended in PBS containing 10% FBS, and labeled using 3 μM CFSE during 5 min at room temperature, followed by two wash steps in complete media. After the last wash, cells were suspended at 1.6×10^6 cells/mL in X-Vivol5 medium. 50 μL of cell suspension (8×10^4 T cells) was added to wells of sterile round-bottom 96-well plates. Cells were activated by adding 50 μL of anti-CD3 anti-CD28 coated microbeads (Dynabeads human T-activator CD3/CD28), suspended in X-Vivo15 medium, at a ratio of one microbead per two cells. […] The final concentration of DMSO in the assay was 0.05%, and the final assay volume was 200 μL. Experiments were performed in biological duplicate, and DMSO control was added in quadruplicate. The cells were placed in a 37° C. humidified tissue culture incubator with 5% CO2 for 72 hours. After 72 hours, the cells were pelleted by centrifugation at 1600 rpm for 5 minutes, and supernatants were transferred to V-bottom 96-well plates for cytokine quantification. Cell pellets were resuspended in FACS buffer (see below) for flow cytometry analysis.
Supernatants were centrifuged at 4000 rpm for 10 minutes, and IL-2 was quantified using the IL-2 (human) AlphaLISA Biotin-Free Detection Kit, and TNFα was quantified using the AlphaLISA Human TNFα Biotin-Free Detection Kit, according to the manufacturer's instructions.

[2] = tested on: Human primary CD3+ T cells; conditions: 25 μM adenosine or 200 μM ATP, 3 days; for Restoration of adenosine- and ATP-mediated suppression of IL-2 secretion: single agent, Compound 8a at 300 nM; for T cell cytokine secretion (IL-2), effect of adenosine or ATP: anti-CD3/CD28-stimulated CD3+ T cells
Method: CD3+ T cells were stimulated with antiCD3/antiCD28-coated microbeads, and treated with 25 μM adenosine (FIG. 4A) or 200 μM ATP (FIG. 4B). IL-2 secretion in the supernatant was analysed by AlphaLISA after a 3 days incubation period. […] Representative data for 1 healthy donor are shown.
(§1) PBMC and CD3+ T cell isolation. Venous blood from healthy volunteers, all of whom signed an informed consent approved by the Ethics Committee (FOR-UIC-BV-050-01-01 ICF_HBS_HD Version 5.0), was obtained via Unité d'Investigation Clinique (Centre Hospitalier Universitaire de Tivoli, La Louviere, Belgium). Mononuclear cells were collected by density gradient centrifugation, using SepMate-50 tubes and Lymphoprep according to the manufacturer's instructions. CD3+ T cells were isolated by immunomagnetic negative selection, using the EasySep Human T Cell Isolation Kit as per manufacturer's instructions. CD3+ T cells were stored in heat inactivated FBS and 10% DMSO in liquid nitrogen.
(§2) Human primary T cell culture. Human purified CD3+ T cells were thawed and washed twice with RPMI1640 medium, UltraGlutamine, supplemented with 1× non-essential amino acids (Lonza), and 1 mM Sodium Pyruvate (Gibco) (complete media), containing 10% hiFBS. After the final wash, cells were resuspended in PBS containing 10% FBS, and labeled using 3 μM CFSE during 5 min at room temperature, followed by two wash steps in complete media. After the last wash, cells were suspended at 1.6×10^6 cells/mL in X-Vivol5 medium. 50 μL of cell suspension (8×10^4 T cells) was added to wells of sterile round-bottom 96-well plates. Cells were activated by adding 50 μL of anti-CD3 anti-CD28 coated microbeads (Dynabeads human T-activator CD3/CD28), suspended in X-Vivo15 medium, at a ratio of one microbead per two cells. […] The final concentration of DMSO in the assay was 0.05%, and the final assay volume was 200 μL. Experiments were performed in biological duplicate, and DMSO control was added in quadruplicate. The cells were placed in a 37° C. humidified tissue culture incubator with 5% CO2 for 72 hours. After 72 hours, the cells were pelleted by centrifugation at 1600 rpm for 5 minutes, and supernatants were transferred to V-bottom 96-well plates for cytokine quantification. Cell pellets were resuspended in FACS buffer (see below) for flow cytometry analysis.
Cytokine quantification. Supernatants were centrifuged at 4000 rpm for 10 minutes, and IL-2 was quantified using the IL-2 (human) AlphaLISA Biotin-Free Detection Kit, and TNFα was quantified using the AlphaLISA Human TNFα Biotin-Free Detection Kit, according to the manufacturer's instructions.

[3] = tested on: Human primary CD3+ T cells; test: Proliferation of CD4+ and CD8+ T cells (CFSE dilution, flow cytometry); conditions: 3 days; for Restoration of adenosine- and ATP-mediated suppression of T cell proliferation: single agent, Compound 8a at 300 nM; for Restoration of adenosine- and ATP-mediated suppression of T cell proliferation / T cell proliferation, effect of adenosine or ATP: 25 μM adenosine or 200 μM ATP; for T cell proliferation, effect of adenosine or ATP: anti-CD3/CD28-stimulated CD3+ T cells
Method: Human primary CD3+ T cells were stimulated with antiCD3/antiCD28-coated microbeads, and treated with 25 μM adenosine (FIGS. 3A and 3C) or 200 μM ATP (FIGS. 3B and 3D). Proliferation of CD4+(FIGS. 3A and 3B) and CD8+(FIGS. 3C and 3D) T cells was analysed by flow cytometry after a 3 days incubation period.
(§3) Human primary CD3+ T cells were stimulated with antiCD3/antiCD28-coated microbeads, and treated with 100 μM ATP or control medium. Viability of CD3+ T cells (FIG. 5A) and proliferation of CD8+ T cells (FIG. 5B) were analysed by flow cytometry after a 3 days incubation period.
as §1
Human primary T cell culture. Human purified CD3+ T cells were thawed and washed twice with RPMI1640 medium, UltraGlutamine, supplemented with 1× non-essential amino acids (Lonza), and 1 mM Sodium Pyruvate (Gibco) (complete media), containing 10% hiFBS. After the final wash, cells were resuspended in PBS containing 10% FBS, and labeled using 3 μM CFSE during 5 min at room temperature, followed by two wash steps in complete media. After the last wash, cells were suspended at 1.6×10^6 cells/mL in X-Vivol5 medium. 50 μL of cell suspension (8×10^4 T cells) was added to wells of sterile round-bottom 96-well plates. Cells were activated by adding 50 μL of anti-CD3 anti-CD28 coated microbeads (Dynabeads human T-activator CD3/CD28), suspended in X-Vivo15 medium, at a ratio of one microbead per two cells. […] The final concentration of DMSO in the assay was 0.05%, and the final assay volume was 200 μL. Experiments were performed in biological duplicate, and DMSO control was added in quadruplicate. The cells were placed in a 37° C. humidified tissue culture incubator with 5% CO2 for 72 hours. […] Cell pellets were resuspended in FACS buffer (see below) for flow cytometry analysis.
(§4) Flow cytometry. Cells were washed with FACS buffer (PBS containing 2 mM EDTA and 0.1% BSA) and stained with surface marker antibodies and viability dye for 20 min on ice. Cells were washed twice with FACS buffer and data acquired using an LSRFortessa (BD biosciences). Analysis was performed using FlowJo software (Treestar).

[4] = tested on: Human primary CD3+ T cells; test: Viability of stimulated human primary CD3+ T cells (flow cytometry, fixable viability dye); conditions: 3 days; for Restoration of adenosine- and ATP-mediated suppression of T cell viability: single agent, Compound 8a at 300 nM; for Restoration of adenosine- and ATP-mediated suppression of T cell viability / T cell viability, effect of adenosine or ATP: 25 μM adenosine or 200 μM ATP; for T cell viability, effect of adenosine or ATP: anti-CD3/CD28-stimulated CD3+ T cells
Method: Human primary CD3+ T cells were stimulated with antiCD3/antiCD28-coated microbeads, and treated with 25 μM adenosine (FIG. 2A) or 200 μM ATP (FIG. 2B). T cell viability was analysed by flow cytometry after a 3 days incubation period.
as §3
PBMC and CD3+ T cell isolation. […] Mononuclear cells were collected by density gradient centrifugation, using SepMate-50 tubes and Lymphoprep according to the manufacturer's instructions. CD3+ T cells were isolated by immunomagnetic negative selection, using the EasySep Human T Cell Isolation Kit as per manufacturer's instructions. CD3+ T cells were stored in heat inactivated FBS and 10% DMSO in liquid nitrogen.
as §2, §4

MCA205 tumor = test: Mouse syngeneic MCA205 fibrosarcoma tumor model; format: in vivo; conditions: C57BL/6 mice; 20 mg/kg p.o. BID for 22 days; p=0.0043
From the text: FIG. 7A is a graph representing the median tumor volume over time after subcutaneous inoculation of tumor cells.
MCA205 tumor cells were inoculated subcutaneously into the right flank of C57BL/6 mice. When tumors reached an average size of about […], mice were randomly allocated into groups.

[5] = tested on: LPS induced TNFalpha production; test: In vivo LPS induced TNFalpha production in mouse (serum ELISA); conditions: BALB/c mice; 20 mg/kg p.o. 1 h before LPS; p=0.008
Method: BALB/c mice were pretreated for 1 h before LPS (1 mg/kg I.V) injection with NBMPR (20 mg/kg p.o.) or vehicle. […] One hour after LPS treatment, blood serum was collected from the mice. TNFalpha levels were determined by ELISA (n=5).
After 30 minutes, mice were treated with NBMPR p.o. at 20 mg/kg. 60 minutes later, mice were treated with LPS and blood was drawn for TNFalpha measurement in the serum, by ELISA.

SMILES | Reversal of inhibition of T cells in the presence of ATP, A2A receptor antagonist in combination with dipyridamole [1] | Restoration of adenosine- and ATP-mediated suppression of IL-2 secretion [2] | Restoration of adenosine- and ATP-mediated suppression of T cell proliferation [3] | Restoration of adenosine- and ATP-mediated suppression of T cell viability [4] | also measured
Cc1c(C#N)cccc1-c1cc(-c2cn(Cc3cccc(C(C)(C)O)n3)nn2)nc(N)n1 [AB928, 3-(2-amino-6-(1-((6-(2-hydroxypropan-2-yl)pyridin-2-yl)methyl)-1H-1,2,3-triazol-4-yl)pyrimidin-4-yl)-2-methylbenzonitrile] | reversed | – | – | – | –
COc1cc(C(=O)OCCCN2CCCN(CCCOC(=O)c3cc(OC)c(OC)c(OC)c3)CC2)cc(OC)c1OC [dilazep hydrochloride] | – | none of the ENT inhibitors rescued | restored | restored | –
Cc1ccc(-c2nc(N)nc3c2nnn3Cc2cccc(CO[C@H]3CCOC3)n2)o1 [CPI-444, (S)-7-(5-methylfuran-2-yl)-3-((6-(([tetrahydrofuran-3-yl]oxy)methyl)pyridin-2-yl)methyl)-3H-[1,2,3]triazolo[4,5-d]pyrimidin-5-amine] | reversed | – | – | – | –
Nc1ncnc2c1ncn2[C@@H]1O[C@H](CO)[C@@H](O)[C@H]1O [Adenosine] | – | – | – | – | T cell cytokine secretion (IL-2), effect of adenosine or ATP [2]: profoundly suppressed; T cell proliferation, effect of adenosine or ATP [3]: profoundly suppressed; T cell viability, effect of adenosine or ATP [4]: strongly reduced
O=[N+]([O-])c1ccc(CSc2ncnc3c2ncn3[C@@H]2O[C@H](CO)[C@@H](O)[C@H]2O)cc1 [NBMPR, 6-S-[(4-Nitrophenyl)methyl]-6-thioinosine] | – | – | – | – | Tumor growth compared to Vehicle, NBMPR single agent (MCA205 tumor): significant delay in tumor growth; Suppression of TNFalpha production after LPS, NBMPR on its own [5]: ~2 fold
Cc1cc(-c2nnc(N)nc2-c2ccc(F)cc2)cc(Cl)n1 [AZD4635, 6-(2-chloro-6-methylpyridin-4-yl)-5-(4-fluorophenyl)-1,2,4-triazin-3-amine] | reversed | – | – | – | –
Nc1ncnc2c1ncn2[C@@H]1O[C@H](COP(=O)([O-])OP(=O)([O-])OP(=O)(O)O)[C@@H](O)[C@H]1O.O.[Na+].[Na+] [ATP, Adenosine 5′-triphosphate disodium salt hydrate] | – | – | – | – | T cell cytokine secretion (IL-2), effect of adenosine or ATP [2]: profoundly suppressed; CD8+ T cell proliferation, effect of ATP ([3]; 100 μM ATP): significantly inhibited; T cell proliferation, effect of adenosine or ATP [3]: profoundly suppressed; T cell viability, effect of ATP ([4]; 100 μM ATP): reduced; T cell viability, effect of adenosine or ATP [4]: strongly reduced; Production of TNFα, effect of ATP ([1]; 3 days): significantly inhibited
OCCN(CCO)c1nc(N2CCCCC2)c2nc(N(CCO)CCO)nc(N3CCCCC3)c2n1 [dipyridamole] | – | none of the ENT inhibitors rescued | restored | restored | Reversal of ATP inhibition of CD8+ T cell proliferation ([3]; 100 μM ATP, dipyridamole 1 μM): completely reversed; Reversal of ATP-reduced T cell viability ([4]; 100 μM ATP, dipyridamole 1 μM): completely reversed
Nc1nc(-n2cccn2)nc(-n2cccn2)c1Br [NIR178, 5-bromo-2,6-di-(1H-pyrazol-1-yl)pyrimidin-4-amine] | reversed | – | – | – | –
CCCSc1nc(N[C@@H]2C[C@H]2c2ccc(F)c(F)c2)c2nnn([C@@H]3C[C@H](OCCO)[C@@H](O)[C@H]3O)c2n1 [ticagrelor] | – | none of the ENT inhibitors rescued | restored | restored | –
